pIC50: −log10 of the molar value. Values after ≈ are worked out from the molar mass of the structure shown. Where two headings read alike, the source gives them in different places. Each block holds one compound with its values, some of them ahead of it.
Experiments:
[1] = biological target: T1, MAT2A enzyme (Homo sapiens, UniProt P31153); experiment: MAT2A enzymatic assay (Biomol Green, OD620); type: biochemical
T1 construct: purchased BPS 71401
Method: • a) First, a 5× MAT2A assay buffer (250 mM Tris-HCl, pH 8.0; 250 mM KCl; 75 mM MgCl2; 0.025% BSA; 0.05% Brij35; 1.5 mM EDTA) was prepared and partially diluted to 1× for later use. • b) Preparation and addition of MAT2A enzyme (BPS, 71401): The MAT2A enzyme was diluted to 3.674 ng/µL (1.67×, final concentration: 2.20 ng/µL) with the 1× MAT2A assay buffer. Using a BioTek (MultiFlo FX) automated dispenser, the 1.67× MAT2A enzyme solution was added to the compound test wells and negative control wells of a plate at 15 µL/well, and meanwhile, the 1× MAT2A assay buffer was added to the blank control wells at 15 µL/well. • c) Preparation and addition of compounds: The test compound was diluted from a 10 mM stock solution to 100 µM with DMSO, and the positive control drug AGI-24512 was diluted under the same conditions. Using a Tecan compound dispenser (D300e), the dilutions were automatically dispensed into each well according to a preset concentration gradient. The dispensed volume was minimal and considered negligible. The concentration gradient started at 1 µM (1/2 log dilution), and a total of 8 gradient points were set. The plate was centrifuged at 2500 rpm for 30 s and incubated at 25 °C for 30 min. • d) Preparation of ATP: 10 mM ATP (Sigma, A7699) was diluted to 700 µM with the 1× MAT2A assay buffer for later use. • e) Preparation and addition of mixed solution of substrate and ATP: A mixed solution was prepared containing the 5× MAT2A assay buffer (3 µL/well), 750 µM L-methionine (Adamas, 01100469) (2.5 µL/well), 700 µM ATP (2.5 µL/well), and double distilled water (2 µL/well). The total amount of the required mixed solution was prepared according to the number of detection wells. Using a BioTek (MultiFlo FX) automated dispenser, the mixed solution was added at 10 µL/well. The resulting mixture was centrifuged at 2500 rpm for 30 s and allowed to react at 25 °C for 150 min. • f) Addition of Biomol Green detection reagent: Using a BioTek (MultiFlo FX) automated dispenser, Biomol Green (Enzo, BML-AK111) was added at 50 µL/well. The plate was centrifuged at 2500 rpm for 30 s and incubated at 25 °C for 20 min. • g) After the reaction was completed, the OD620 values were measured using a Perkin Elmer (Envision 2105) multimode microplate reader.
The inhibition rate was calculated using the following formula: Inhibition rate % = (ODmax −ODsample)/(ODmax −ODmin) × 100% [formula] where: • ODsample represents the OD620 value of the sample well; • ODmin represents the mean OD620 value of the blank control wells containing no enzyme and no test compound; • ODmax represents the mean OD620 value of the negative control wells containing enzyme but no compound. […]

[2] = Heating experiment via DSC followed by XRD; type: physicochemical; conditions: Heating temperature 110 °C
Source text: The heated samples were then collected and subjected to XRD analysis. Table 27: Summary of heating test results for various crystal forms

[3] = Room-temperature solubility in solvents; type: physicochemical; conditions: thermodynamic from solid, read-out: Solubility S
Method: Determination of the solubility of the crystal form G was conducted in 20 selected solvents at room temperature. A sample (about 2 mg) was weighed and added to a 3-mL vial, and the corresponding solvent listed in Table 29 below was added (100 µL each time) until the solid was dissolved. If the solid was still not completely dissolved after 2 mL of the solvent was added, further addition was stopped. The solubility range in the corresponding solvent was calculated according to the mass of the sample and the volume of the solvent. Table 29: Solubility ranges of crystal form G at room temperature

[4] = Dynamic solubility in buffers and water (HPLC, XRD of remaining solid); type: physicochemical; conditions: 37 °C; for solubility at 1 h / solubility at 4 h / solubility at 24 h: thermodynamic from solid, feed concentration 10 mg/mL
Method: 2.1. Hydrochloric acid solution at pH 1.0: A specified amount (9.00 mL) of hydrochloric acid was taken, diluted to 1000 mL with water, and shaken well to give the desired solution.
0.2 mol/L potassium dihydrogen phosphate solution: 27.22 g of potassium dihydrogen phosphate was taken, and dissolved and diluted to 1000 mL with water.
0.2 mol/L sodium hydroxide solution: 8.00 g of sodium hydroxide was taken, and dissolved and diluted to 1000 mL with water.
250 mL of a 0.2 mol/L potassium dihydrogen phosphate solution was taken and mixed with the specified amount of a 0.2 mol/L sodium hydroxide solution indicated in the table below. Then, the mixture was diluted to 1000 mL with water and shaken well to give the desired solution. Table 23: Phosphate buffer
Determination of the 1-, 4-, and 24-hour solubilities of the sample in four solvent systems (pH 1.0 buffer, pH 4.5 buffer, pH 6.8 buffer, and water) was conducted with a feed concentration of 10 mg/mL by shaking (400 rpm) at 37 °C. At each time point, a sample was taken, centrifuged (10000 rpm, 2 min), and filtered (through a 0.22 µm PTFE filter membrane, with the initial filtrate discarded). The HPLC concentration of the filtrate was then determined, and the remaining solid was subjected to XRD analysis. Table 30. Summary of dynamic solubility test results for crystal form G

T1 sequence (P31153 whole entry): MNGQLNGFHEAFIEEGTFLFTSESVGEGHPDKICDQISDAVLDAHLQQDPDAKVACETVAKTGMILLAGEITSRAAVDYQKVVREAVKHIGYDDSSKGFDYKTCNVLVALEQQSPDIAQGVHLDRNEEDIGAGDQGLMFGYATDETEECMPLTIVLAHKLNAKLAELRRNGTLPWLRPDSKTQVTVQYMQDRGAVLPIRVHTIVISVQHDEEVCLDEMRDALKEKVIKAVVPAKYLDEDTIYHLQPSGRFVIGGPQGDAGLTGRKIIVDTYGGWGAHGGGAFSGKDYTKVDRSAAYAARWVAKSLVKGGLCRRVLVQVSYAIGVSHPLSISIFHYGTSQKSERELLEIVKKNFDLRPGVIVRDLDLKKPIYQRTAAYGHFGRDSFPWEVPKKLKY

- pIC50 [1]: 7.57
SMILES: Cc1[nH]c2c(N3CCCCC3)c(-c3ccccc3)nn2c(=O)c1-c1ccc(O)cc1 [AGI-24512, reference compound]

- After heating (crystal form) [2]: Crystal form A
- solubility ([3]; organic solvent or mixture, 1,4-Dioxane, room temperature): 4800 to 6300 µg/mL (≈ 10400 to 13700 µM)
- solubility ([3]; organic solvent or mixture, ACN, room temperature): ~1100 µg/mL (≈ 2390 µM)
- solubility ([3]; organic solvent or mixture, ACN/H2O (10:1), room temperature): < 1100 µg/mL
- solubility ([3]; organic solvent or mixture, Acetone, room temperature): ~1000 µg/mL (≈ 2180 µM)
- solubility ([3]; organic solvent or mixture, CHCl3, room temperature): > 10500 µg/mL
- solubility ([3]; organic solvent or mixture, DCM, room temperature): 1900 to 2300 µg/mL (≈ 4140 to 5010 µM)
- solubility ([3]; organic solvent or mixture, DMAc, room temperature): > 40000 µg/mL
- solubility ([3]; organic solvent or mixture, DMF, room temperature): 21000 to 42000 µg/mL (≈ 45700 to 91400 µM)
- solubility ([3]; organic solvent or mixture, DMSO, room temperature): 9500 to 19000 µg/mL (≈ 20700 to 41400 µM)
- solubility ([3]; organic solvent or mixture, EtOAc, room temperature): 1100 to 2200 µg/mL (≈ 2390 to 4790 µM)
- solubility ([3]; organic solvent or mixture, EtOH, room temperature): ~1200 µg/mL (≈ 2610 µM)
- solubility ([3]; organic solvent or mixture, IPA, room temperature): ~1000 µg/mL (≈ 2180 µM)
- solubility ([3]; organic solvent or mixture, IPAc, room temperature): ~1100 µg/mL (≈ 2390 µM)
- solubility ([3]; organic solvent or mixture, MEK, room temperature): 5300 to 10500 µg/mL (≈ 11500 to 22900 µM)
- solubility ([3]; organic solvent or mixture, MIBK, room temperature): 2000 to 2500 µg/mL (≈ 4350 to 5440 µM)
- solubility ([3]; organic solvent or mixture, MTBE, room temperature): < 1100 µg/mL
- solubility ([3]; organic solvent or mixture, MeOH, room temperature): 3710 to 5500 µg/mL (≈ 8070 to 12000 µM)
- solubility ([3]; organic solvent or mixture, MeOH/DCM (1:1), room temperature): 5000 to 10000 µg/mL (≈ 10900 to 21800 µM)
- solubility ([3]; organic solvent or mixture, THF, room temperature): 7000 to 10500 µg/mL (≈ 15200 to 22900 µM)
- solubility ([3]; water, H2O, room temperature): < 1100 µg/mL
- Crystal form change ([4]; H2O, 1 h): Yes
- Crystal form change ([4]; H2O, 4 h): Yes
- Crystal form change ([4]; H2O, 24 h): Yes
- Crystal form change ([4]; pH 1.0, 1 h): Yes
- Crystal form change ([4]; pH 1.0, 4 h): Yes
- Crystal form change ([4]; pH 1.0, 24 h): Yes
- solubility at 1 h ([4]; pH 1.0 buffer, simulated gastric fluid, pH 1.0, 1 h): 0.32 µg/mL (≈ 0.696 µM)
- solubility at 4 h ([4]; pH 1.0 buffer, simulated gastric fluid, pH 1.0, 4 h): 0.16 µg/mL (≈ 0.348 µM)
- solubility at 24 h ([4]; pH 1.0 buffer, simulated gastric fluid, pH 1.0, 24 h): 0.12 µg/mL (≈ 0.261 µM)
- Crystal form change ([4]; pH 4.5, 1 h): Yes
- Crystal form change ([4]; pH 4.5, 4 h): Yes
- Crystal form change ([4]; pH 4.5, 24 h): Yes
- solubility at 4 h ([4]; pH 4.5 buffer, aqueous buffer, pH 4.5, 4 h): 0.07 µg/mL (≈ 0.152 µM)
- solubility at 24 h ([4]; pH 4.5 buffer, aqueous buffer, pH 4.5, 24 h): 0.08 µg/mL (≈ 0.174 µM)
- Crystal form change ([4]; pH 6.8, 1 h): Yes
- Crystal form change ([4]; pH 6.8, 4 h): Yes
- Crystal form change ([4]; pH 6.8, 24 h): Yes
- solubility at 24 h ([4]; pH 6.8 buffer, aqueous buffer, pH 6.8, 24 h): 0.06 µg/mL (≈ 0.131 µM)
- solubility at 1 h ([4]; water, H2O, 1 h): 0.13 µg/mL (≈ 0.283 µM)
- solubility at 4 h ([4]; water, H2O, 4 h): 0.09 µg/mL (≈ 0.196 µM)
SMILES: Cn1cc2cc(-c3nn4ccc(C5CC5)nc4c(-c4ccc(OC(F)F)cc4)c3=O)ccc2n1 [Crystal form G, 2-cyclopropyl-9-[4-(difluoromethoxy)phenyl]-7-(2-methyl-2H-indazol-5-yl)-8H-pyrimido[1,2-b]pyridazin-8-one]
